Columns and labels:
[1] = target: T1, CA I (Homo sapiens, UniProt P00915); experiment: Fluorescent thermal shift assay (TSA), CA I; assay type: binding; conditions: 37° C., pH 7.0, read-out: Dissociation constants Kd to CA I (converted)
[2] = target: T2, CA VII (Homo sapiens, UniProt P43166); experiment: Fluorescent thermal shift assay (TSA), CA VII; assay type: binding; conditions: 37° C., pH 7.0, read-out: Dissociation constants Kd to CA VII (converted)
[3] = target: T3, CA XII (Homo sapiens, UniProt O43570); experiment: Fluorescent thermal shift assay (TSA), CA XII; assay type: binding; conditions: 37° C., pH 7.0, read-out: Dissociation constants Kd to CA XII (converted)
[4] = target: T4, CA XIII (Homo sapiens, UniProt Q8N1Q1); experiment: Fluorescent thermal shift assay (TSA), CA XIII; assay type: binding; conditions: 37° C., pH 7.0, read-out: Dissociation constants Kd to CA XIII
[5] = target: T5, CA II (Homo sapiens, UniProt P00918); experiment: Fluorescent thermal shift assay (TSA), CA II; assay type: binding; conditions: 37° C., pH 7.0, read-out: Dissociation constants Kd to CA II (converted)
[6] = target: T5, CA II; experiment: CO2 hydration assay (stopped-flow); assay type: biochemical
[7] = target: T3, CA XII; experiment: Isothermal titration calorimetry (ITC), CA XII; assay type: binding; conditions: 37° C., pH 7.0, read-out: Dissociation constants Kd to CA XII
[8] = target: T2, CA VII; experiment: Isothermal titration calorimetry (ITC), CA VII; assay type: binding; conditions: 37° C., pH 7.0, read-out: Dissociation constants Kd to CA VII
[9] = target: T4, CA XIII; experiment: biochemical
[10] = target: T1, CA I; experiment: Isothermal titration calorimetry (ITC), CA I; assay type: binding; conditions: 37° C., pH 7.0, read-out: Dissociation constants Kd to CA I
[11] = target: T5, CA II; experiment: biochemical

T1 sequence (P00915 whole entry): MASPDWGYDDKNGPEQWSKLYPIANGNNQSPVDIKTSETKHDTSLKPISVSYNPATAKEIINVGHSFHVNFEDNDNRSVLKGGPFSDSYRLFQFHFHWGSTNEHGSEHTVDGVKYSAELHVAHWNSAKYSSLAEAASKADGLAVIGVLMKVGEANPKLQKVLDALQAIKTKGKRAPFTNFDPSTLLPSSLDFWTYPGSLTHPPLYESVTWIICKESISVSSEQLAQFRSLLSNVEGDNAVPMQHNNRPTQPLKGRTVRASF
T2 sequence (P43166 whole entry): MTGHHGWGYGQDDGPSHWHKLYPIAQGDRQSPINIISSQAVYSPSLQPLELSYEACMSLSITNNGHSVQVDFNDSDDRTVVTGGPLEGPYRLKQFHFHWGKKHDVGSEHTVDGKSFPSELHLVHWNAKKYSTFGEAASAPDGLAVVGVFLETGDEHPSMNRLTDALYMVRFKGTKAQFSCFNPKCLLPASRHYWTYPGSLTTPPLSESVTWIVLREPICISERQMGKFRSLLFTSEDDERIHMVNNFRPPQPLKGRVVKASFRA
T4 sequence (Q8N1Q1 whole entry): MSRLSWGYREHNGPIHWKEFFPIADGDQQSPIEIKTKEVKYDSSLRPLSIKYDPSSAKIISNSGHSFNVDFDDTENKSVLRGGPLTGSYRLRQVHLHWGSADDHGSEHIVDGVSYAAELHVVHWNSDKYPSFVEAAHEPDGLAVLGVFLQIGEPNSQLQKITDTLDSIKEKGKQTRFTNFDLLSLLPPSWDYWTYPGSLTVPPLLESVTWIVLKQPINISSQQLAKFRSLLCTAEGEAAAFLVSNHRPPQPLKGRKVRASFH
T3 sequence (O43570 30-291 limits assumed): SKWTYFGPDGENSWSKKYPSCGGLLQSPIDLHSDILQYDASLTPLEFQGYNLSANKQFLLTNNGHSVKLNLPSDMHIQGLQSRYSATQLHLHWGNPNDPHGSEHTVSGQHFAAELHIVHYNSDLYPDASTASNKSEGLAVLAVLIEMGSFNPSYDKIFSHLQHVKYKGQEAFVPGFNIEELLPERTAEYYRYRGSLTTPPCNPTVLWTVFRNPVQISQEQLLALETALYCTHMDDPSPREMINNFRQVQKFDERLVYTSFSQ

Kd [1] | Kd [2] | Kd [3] | Kd [4] | Kd [5] | Ki [6] | Kd [7] | Kd [8] | Kd [9] | Kd [10] | Kd [11] | Compound
3.3 µM | 0.13 µM | 2.9 µM | 0.067 µM | 0.5 µM |  |  |  |  |  |  | CC(C)Nc1c(F)c(SCCc2ccccc2)c(F)c(F)c1S(N)(=O)=O [Compound 3a, 2-(isopropylamino)-3,5,6-trifluoro-4-[(2-phenylethyl)thio]benzenesulfonamide]
1.7 µM | 4 µM | 5 µM | 0.04 µM | 3.3 µM |  |  |  |  |  |  | CC(Nc1c(F)c(SCCc2ccccc2)c(F)c(F)c1S(N)(=O)=O)c1ccccc1 (stereo not shown) [Compound 3d, 2-[(1-phenylethyl)amino]-3,5,6-trifluoro-4-[(2-phenylethyl)thio]benzenesulfonamide]
25 µM | 0.17 µM | 0.5 µM | 0.5 µM | 0.25 µM |  |  |  |  |  |  | NS(=O)(=O)c1c(F)c(F)c(SCCc2ccccc2)c(F)c1NC1CCCCC1 [Compound 3f, 2-(cyclohexylamino)-3,5,6-trifluoro-4-[(2-phenylethyl)thio]benzenesulfonamide]
5 µM | 4 µM | 1.7 µM | 0.1 µM | 3.3 µM |  |  |  |  |  |  | NS(=O)(=O)c1c(F)c(F)c(SCCc2ccccc2)c(F)c1NC1Cc2ccccc2C1 [Compound 3l, 2-(2,3-dihydro-1H-inden-2-ylamino)-3,5,6-trifluoro-4-[(2-phenylethyl)thio]benzenesulfonamide]
8.3 µM | 1.1 µM | 1.25 µM | 0.0333 µM | 2.78 µM | 0.5 µM |  |  |  |  |  | NS(=O)(=O)c1c(F)c(F)c(SCCO)c(F)c1N[C@H]1CCc2ccccc21 [Compound 4e, 2-[(1S)-2,3-dihydro-1H-inden-1-ylamino]-3,5,6-trifluoro-4-[(2-hydroxyethyl)thio]benzenesulfonamide]
0.167 µM | 0.167 µM | 0.833 µM | 0.1 µM | 0.2 µM |  |  |  |  |  |  | NS(=O)(=O)c1c(F)c(F)cc(F)c1NC1CCCCCCC1 [Compound 8a, 2-(cyclooctylamino)-3,5,6-trifluorobenzenesulfonamide]
0.067 µM | 0.0083 µM |  | 0.0013 µM |  |  |  |  |  |  |  | CNc1c(F)c(S(N)(=O)=O)c(F)c(F)c1S(=O)(=O)CCc1ccccc1 [Compound 9a, 3-(methylamino)-2,5,6-trifluoro-4-[(2-phenylethyl)sulfonyl]benzenesulfonamide]
0.056 µM | 0.005 µM |  | 0.0025 µM |  |  |  |  |  |  |  | NS(=O)(=O)c1c(F)c(F)c(S(=O)(=O)CCc2ccccc2)c(NCc2ccccc2)c1F [Compound 9c, 3-(benzylamino)-2,5,6-trifluoro-4-[(2-phenylethyl)sulfonyl]benzenesulfonamide]
0.5 µM | 0.004 µM | 0.033 µM | 0.0067 µM | 0.017 µM |  |  |  |  |  |  | NS(=O)(=O)c1c(F)c(F)c(S(=O)(=O)CCc2ccccc2)c(NCCc2ccccc2)c1F [Compound 9d, 3-[(2-phenylethy)amino]-2,5,6-trifluoro-4-[(2-phenylethyl)sulfonyl]benzenesulfonamide]
0.0588 µM | 0.667 µM | 0.167 µM | 0.0083 µM | 0.0222 µM |  |  |  |  |  |  | COc1cccc(OC)c1CNc1c(F)c(S(N)(=O)=O)c(F)c(F)c1S(=O)(=O)CCc1ccccc1 [Compound 9h, 3-[(2,6-dimethoxybenzyl)amino]-2,5,6-trifluoro-4-[(2-phenylethyl)sulfonyl]benzenesulfonamide]
0.213 µM | 0.0067 µM | 0.25 µM | 0.0033 µM | 0.0222 µM |  |  |  |  |  |  | COc1ccc(CNc2c(F)c(S(N)(=O)=O)c(F)c(F)c2S(=O)(=O)CCc2ccccc2)cc1OC [Compound 9i, 3-[(3,4-dimethoxybenzyl)amino]-2,5,6-trifluoro-4-[(2-phenylethyl)sulfonyl]benzenesulfonamide]
0.5 µM | 0.005 µM | 0.017 µM | 0.0056 µM | 0.05 µM |  |  |  |  |  |  | NS(=O)(=O)c1c(F)c(F)c(S(=O)(=O)CCc2ccccc2)c(NC23CC4CC(CC(C4)C2)C3)c1F [Compound 9j, 3-(1-adamantylamino)-2,5,6-trifluoro-4-[(2-phenylethyl)sulfonyl]benzenesulfonamide]
1.7 µM | 0.01 µM | 0.25 µM | 0.0056 µM | 0.033 µM |  |  |  |  |  |  | NS(=O)(=O)c1c(F)c(F)c(S(=O)(=O)CCc2ccccc2)c(N[C@@H](c2ccccc2)[C@H](O)c2ccccc2)c1F [Compound 9n, 3-{[(1S,2R)-2-hydroxy-1,2-diphenylethyl]amino}-2,5,6-trifluoro-4-[(2-phenylethyl)sulfonyl]benzenesulfonamide]
0.77 µM | 0.04 µM | 0.4 µM | 0.0067 µM | 0.091 µM |  |  |  |  |  |  | NS(=O)(=O)c1c(F)c(F)c(S(=O)(=O)CCc2ccccc2)c(N[C@H](c2ccccc2)[C@@H](O)c2ccccc2)c1F [Compound 9o, 3-{[(1R,2S)-2-hydroxy-1,2-diphenylethyl]amino}-2,5,6-trifluoro-4-[(2-phenylethyl)sulfonyl]benzenesulfonamide]
0.2 µM | 0.13 µM |  | 0.014 µM |  |  | 0.0122 µM | 0.405 µM | 0.0452 µM | 0.13 µM | 0.139 µM | NS(=O)(=O)c1c(F)c(F)c(S(=O)(=O)CCO)c(NCc2ccccc2)c1F [Compound 10a, 3-(benzylamino)-2,5,6-trifluoro-4-[(2-hydroxyethyl)sulfonyl]benzenesulfonamide]
0.2 µM | 0.04 µM | 0.0667 µM | 0.025 µM | 0.0167 µM |  |  |  |  |  |  | COc1cccc(OC)c1CNc1c(F)c(S(N)(=O)=O)c(F)c(F)c1S(=O)(=O)CCO [Compound 10d, 3-[(2,6-dimethoxybenzyl)amino]-2,5,6-trifluoro-4-[(2-hydroxyethyl)sulfonyl]benzenesulfonamide]
0.0833 µM | 0.0143 µM | 0.0667 µM | 0.0043 µM | 0.025 µM |  |  |  |  |  |  | COc1ccc(CNc2c(F)c(S(N)(=O)=O)c(F)c(F)c2S(=O)(=O)CCO)cc1OC [Compound 10e, 3-[(3,4-dimethoxybenzyl)amino]-2,5,6-trifluoro-4-[(2-hydroxyethyl)sulfonyl]benzenesulfonamide]

Compound | Kd [1] | Kd [2] | Kd [3] | Kd [4] | Kd [5] | Ki [6] | Kd [7] | Kd [8] | Kd [9] | Kd [10] | Kd [11]
3-{[4-(aminosulfonyl)-2,3,5,6-tetrafluorophenyl]thio}-[1,2,3]thiadiazolo[3,4-a]benzimidazole [Compound 2w] | 0.0004 µM | 0.013 µM | 0.11 µM |  |  |  |  |  |  |  | 
